# Laboratory results published in patent US20090048293A1 (priority 2005, published 2009).
# Several values for one entry are separate records, joined by “and”; a condition that tells them apart may be missing. Identical values can stand only once. Entries after “also recorded” stand apart in the source; their conditions may differ. Like-named read-outs stand apart in the source and are kept apart here. Where a SMILES comes first, the peptide text is derived from it. [ ]: non-standard residue; d: D form. The star is where a group is joined. Sta = CC(C)C[C@H](N)[C@@H](O)CC(=O)O; Isovaleryl = CC(C)CC(=O)*
# Legend:
# [1] = system: syndecan-1 shedding of NMuMG cells; type: cell-based, murine
# Npr599 = type: biochemical, Bacillus anthracis
# TLR2 = type: cell-based
# InhA = type: biochemical, Bacillus anthracis
# [2] = system: syndecan-1 ectodomain shedding from NMuMG cells; type: cell-based, murine
structure (smiles),measurement,setting,value
"c1cnc2c(c1)ccc1cccnc12 [1,10-phenanthroline, 1, 10-phenanthroline]",Effect on AnlO-induced syndecan-1 shedding (in words),[1],reduce
same,Effect on LeTx-induced syndecan-1 shedding (in words),[1],reduce
same,Effect on Npr599 caseinolytic activity (in words),Npr599,rapidly inhibited
same,Effect on Npr599 caseinolytic activity (in words),Npr599; 1 mM,completely abolishes
same,Effect on TLR2 signaling stimulated by B. anthracis culture supernatant (in words),TLR2,abrogated
same,Effect on InhA caseinolytic activity (in words),InhA,rapidly inhibited
same,Remaining protease activity (%) InhA,InhA,0%
same,Effect on InhA caseinolytic activity (in words),InhA; 1 mM,completely abolishes
same,Effect on Npr599-activated syndecan-1 shedding (in words),[2],abrogate
[Ca+2] [Ca2+],Effect on Npr599 caseinolytic activity (in words),Npr599,do not
same,Remaining activity (%) Npr599,Npr599,86 (1.5) % and 97 (1.4) %
same,Effect on InhA caseinolytic activity (in words),InhA,do not
same,Remaining activity (%) InhA,InhA,91 (5.2) % and 94 (3.5) %
[Cu+2] [Cu2+],Effect on Npr599 caseinolytic activity (in words),Npr599,inhibit
same,Remaining activity (%) Npr599,Npr599,1 (1.0) % and 0 (0.0) %
same,Effect on InhA caseinolytic activity (in words),InhA,inhibit
same,Remaining activity (%) InhA,InhA,0 (0.0) %
O[C@@H](CS)[C@@H](O)CS [DTT],Effect on Npr599 caseinolytic activity (in words),Npr599,inhibits
same,Effect on InhA caseinolytic activity (in words),InhA,inhibits
CC(C)C[C@H](NC(=O)[C@H]1O[C@@H]1C(=O)O)C(=O)NCCCCN=C(N)N [E-64],Remaining protease activity (%) Npr599,Npr599,74.1% and 76.1% and 79.5%
same,Remaining protease activity (%) InhA,InhA,59.1% and 78.4% and 83.5%
"O=C(O)CN(CCN(CC(=O)O)CC(=O)O)CC(=O)O [EDTA, ethylenediaminetetraacetic acid]",Effect on Npr599 caseinolytic activity (in words),Npr599,rapidly inhibited
same,Remaining protease activity (%) Npr599,Npr599,6.5% and 9.5% and 10.5%
same,Effect on InhA caseinolytic activity (in words),InhA,rapidly inhibited
same,Remaining protease activity (%) InhA,InhA,28.2% and 28.7% and 33.1%
[Fe+2] [Fe2+],Effect on Npr599 caseinolytic activity (in words),Npr599,inhibit
same,Effect on InhA caseinolytic activity (in words),InhA,inhibit
"CNC(=O)[C@H](Cc1c[nH]c2ccccc12)NC(=O)[C@@H](CC(=O)NO)CC(C)C [Galardin, Galardin (Ilomastat)]",Effect on AnlO-induced syndecan-1 shedding (in words),[1],reduce
same,Effect on Npr599 caseinolytic activity (in words),Npr599,inhibits Npr599 activity strongly
same,Effect on InhA caseinolytic activity (in words),InhA,less sensitive; also recorded: not InhA activity significantly
same,Remaining protease activity (%) InhA,InhA,70.5% and 104% and 103.3%
same,Effect on Npr599-activated syndecan-1 shedding (in words),[2],abrogate
"O=C1c2ccccc2-c2n[nH]c3cccc1c23 [JNK inhibitor, JNK inhibitor II]",Effect on protease-enhanced syndecan-1 release (in words),[2],strongly inhibits
same,Effect on protease-enhanced syndecan-1 shedding (in words),[2],some stimulatory effect
Cl.N[C@@H](CS)C(=O)O [L-Cysteine.HCl],Effect on Npr599 caseinolytic activity (in words),Npr599; 1 mM,no substantial inhibiting activity
same,Effect on InhA caseinolytic activity (in words),InhA; 1 mM,no substantial inhibiting activity
"CC(=O)N[C@@H](CC(C)C)C(=O)N[C@@H](CC(C)C)C(=O)N[C@H](C=O)CCCNC(=N)N [Leupeptin, leupeptin]",Remaining protease activity (%) Npr599,Npr599,95.4% and 106.2%
same,Remaining protease activity (%) InhA,InhA,75.1% and 105.6% and 111.4%
[Mg+2] [Mg2+],Effect on Npr599 caseinolytic activity (in words),Npr599,do not
same,Remaining activity (%) Npr599,Npr599,83 (2.8) % and 97 (1.4) %
same,Effect on InhA caseinolytic activity (in words),InhA,do not
same,Remaining activity (%) InhA,InhA,76 (6.1) % and 97 (1.7) %
[Mn+2] [Mn2+],Effect on Npr599 caseinolytic activity (in words),Npr599,do not
same,Remaining activity (%) Npr599,Npr599,79 (0.2) % and 96 (4.3) %
same,Effect on InhA caseinolytic activity (in words),InhA,do not
same,Remaining activity (%) InhA,InhA,103 (2.5) % and 91 (5.1) %
[Ni+2] [Ni2+],Remaining activity (%) Npr599,Npr599,46 (1.4) % and 77 (1.4) %
same,Remaining activity (%) InhA,InhA,45 (3.4) % and 69 (1.3) %
COc1cccc(-c2cc(=O)c3ccccc3o2)c1N [PD98059],Effect on protease-enhanced syndecan-1 release (in words),[2],strongly inhibits
same,Effect on protease-enhanced syndecan-1 shedding (in words),[2],some stimulatory effect
"O=S(=O)(F)Cc1ccccc1 [PMSF, phenylmethanesulfonyl fluoride]",Remaining protease activity (%) Npr599,Npr599,88.2% and 100.9% and 87.2%
same,Remaining protease activity (%) InhA,InhA,111.1% and 109.8% and 94.7%
"CC(C)CC(=O)N[C@H](C(=O)N[C@H](C(=O)N[C@@H](CC(C)C)[C@@H](O)CC(=O)N[C@@H](C)C(=O)N[C@@H](CC(C)C)[C@@H](O)CC(=O)O)C(C)C)C(C)C [Pepstatin A, pepstatin A] (Isovaleryl-VV[Sta]A[Sta]-OH)",Remaining protease activity (%) Npr599,Npr599,67.6% and 75.3% and 77.9%
"CC(C)C[C@H](NP(=O)(O)O[C@@H]1O[C@@H](C)[C@H](O)[C@@H](O)[C@H]1O)C(=O)N[C@@H](Cc1c[nH]c2ccccc12)C(=O)O [Phosphoramidon, phosphoramidon]",Effect on InhA caseinolytic activity (in words),InhA,less sensitive
same,Remaining protease activity (%) InhA,InhA,45.3% and 80.3% and 87.1%
same,Effect on Npr599-activated syndecan-1 shedding (in words),[2],abrogate
CCCCCCCCCCCCOS(=O)(=O)[O-].[Na+] [SDS],Activation of Npr599,Npr599; 3.5 μM,approximately 2.4 fold
[Zn+2] [Zn2+],Effect on Npr599 caseinolytic activity (in words),Npr599,inhibit
same,Effect on InhA caseinolytic activity (in words),InhA,inhibit
"OCCS [b-mercaptoethanol, β-mercaptoethanol]",Remaining protease activity (%) Npr599,Npr599,85.4% and 133.4% and 120.7%
same,Effect on Npr599 caseinolytic activity (in words),Npr599; 1 mM,no substantial inhibiting activity
same,Remaining protease activity (%) InhA,InhA,85.8% and 105.8% and 113.4%
same,Effect on InhA caseinolytic activity (in words),InhA; 1 mM,no substantial inhibiting activity
Cc1ccc(C(=O)Nc2ccc(S(=O)(=O)O)c3cc(S(=O)(=O)O)cc(S(=O)(=O)O)c23)cc1NC(=O)c1cccc(NC(=O)Nc2cccc(C(=O)Nc3cc(C(=O)Nc4ccc(S(=O)(=O)O)c5cc(S(=O)(=O)O)cc(S(=O)(=O)O)c45)ccc3C)c2)c1 [suramin],Effect on AnlO-induced syndecan-1 shedding (in words),[1],reduce
same,Effect on LeTx-induced syndecan-1 shedding (in words),[1],reduce
same,Effect on syndecan-1 shedding induced by proteases (in words),[2],effectively inhibits
same,Effect on syndecan shedding (in words),[2]; 20 μM,stimulates
